# “Also recorded” adds a separate entry of the source.
# Key:
# SYK(A353T)-NL = target: T1, SYK(A353T)-NL (Homo sapiens, UniProt P43405, A353T); assay: NanoBRET assay in digitonin permeabilized HEK293 cells, SYK(A353T)-NL; assay type: cell-based; conditions: fixed concentration of tracer 8, average ± SEM, read-out: IC50, SYK(variant)-NL A353T
# T1 construct: host or cells: HEK293
# Experimental: (§1) We performed NanoBRET tracer optimization to determine if the SYK tracers could effectively generate a BRET signal. […] To enable the NanoBRET assay using tracer 8 with cells permeabilized by digitonin, a tracer dose–response study was performed for each SYK(GoF) variant and SYK(WT) (Figure 3A), followed by tracer titration experiments (Figure 3B; Supplementary Figure S3). […] Initially, we determined the EC50 of tracer 8 for each SYK(GoF) variant and SYK(WT). […] Plates were incubated for 25 min at room temperature if digitonin was added or for 2 h at 37°C in 5% CO2 for the intact cell NanoBRET assay. […] For intact live cells in a 96-well plate, the 3X stock solution was prepared with 30 μL of NanoBRET NanoGlo substrate, 10 μL of extracellular NanoLuc inhibitor, and 4,960 μL of Opti-MEM without phenol red. […] Raw milliBRET units (mBU) were read on a GloMax Discover system (Promega) with a donor emission wavelength of 450 nm and an acceptor emission wavelength of 600 nm. mBU were calculated by dividing the acceptor emission values (600 nm) by the donor emission values (450 nm). For NanoBRET studies with SYK, background corrected mBU were calculated by subtracting the no tracer wells from the tracer-containing wells and multiplying by 1,000. […]
# SYK(M450I)-NL = target: T2, SYK(M450I)-NL (Homo sapiens, UniProt P43405, M450I); assay: NanoBRET assay in digitonin permeabilized HEK293 cells, SYK(M450I)-NL; assay type: cell-based; conditions: fixed concentration of tracer 8, average ± SEM, read-out: IC50, SYK(variant)-NL M450I
# T2 construct: host or cells: HEK293
# Experimental: as §1
# SYK(P342T)-NL [1] = target: T3, SYK(P342T)-NL (Homo sapiens, UniProt P43405, P342T); assay: NanoBRET assay in digitonin permeabilized HEK293 cells, SYK(P342T)-NL; assay type: cell-based; conditions: fixed concentration of tracer 8, average ± SEM, read-out: IC50, SYK(variant)-NL P342T
# T3 construct: host or cells: HEK293
# Experimental: as §1
# SYK = target: T4, SYK (Homo sapiens, UniProt P43405); assay: Eurofins DiscoverX SYK enzymatic radiometric assay; assay type: biochemical; conditions: Km value for ATP, 9-pt dose-response
# T4 construct: purchased Eurofins DiscoverX (contract assay service)
# From the text: Eurofins kinase enzymatic radiometric assays were executed at the Km value for ATP in dose–response (9-pt curve) format for SYK, included in Table 1 as enzymatic IC50 values.
# SYK(WT)-NL = target: T5, SYK(WT)-NL (Homo sapiens, UniProt P43405); assay: NanoBRET assay in digitonin permeabilized HEK293 cells, SYK(WT)-NL; assay type: cell-based; conditions: fixed concentration of tracer 8, average ± SEM, read-out: IC50, SYK(variant)-NL WT
# T5 construct: SYK tracers enable BRET with full-length SYK(WT) after digitonin permeabilization; host or cells: HEK293
# Experimental: We performed NanoBRET tracer optimization to determine if the SYK tracers could effectively generate a BRET signal. […] To enable the NanoBRET assay using tracer 8 with cells permeabilized by digitonin, a tracer dose–response study was performed for each SYK(GoF) variant and SYK(WT) (Figure 3A), followed by tracer titration experiments (Figure 3B; Supplementary Figure S3). […] Initially, we determined the EC50 of tracer 8 for each SYK(GoF) variant and SYK(WT). […] Plates were incubated for 25 min at room temperature if digitonin was added or for 2 h at 37°C in 5% CO2 for the intact cell NanoBRET assay. […] For intact live cells in a 96-well plate, the 3X stock solution was prepared with 30 μL of NanoBRET NanoGlo substrate, 10 μL of extracellular NanoLuc inhibitor, and 4,960 μL of Opti-MEM without phenol red. For digitonin permeabilized live cells in a 96-well plate, the 3X stock solution was prepared with 30 μL of NanoBRET NanoGlo substrate and 4,970 μL of Opti-MEM without phenol red. Raw milliBRET units (mBU) were read on a GloMax Discover system (Promega) with a donor emission wavelength of 450 nm and an acceptor emission wavelength of 600 nm. mBU were calculated by dividing the acceptor emission values (600 nm) by the donor emission values (450 nm). For NanoBRET studies with SYK, background corrected mBU were calculated by subtracting the no tracer wells from the tracer-containing wells and multiplying by 1,000.
# HEK293 cells were transfected with constructs of SYK(WT) or SYK(KD) tagged with NL on the C- or N-terminus and SYK GoF variants tagged with NL on the C-terminus. Tracer 8 (20X) was prepared from a 400 μM stock solution in DMSO with tracer dilution buffer (Promega, #N291B) and 20% DMSO, with a final assay plate concentration of 1% DMSO. 5 μL of 8 (20X) was added to each well, with exception of the no tracer control wells, with final plate concentrations of 0.5, 1, and 2 μM. 10 μL of digitonin (Fisher, 10X, 500 μg/mL) was added to specific wells to permeabilize the cells. The 10X digitonin stock was prepared by diluting a 40X DMSO solution of digitonin with room temperature Opti-MEM without phenol red, for a final assay plate concentration of 1% DMSO. SYK inhibitor stock solutions of MRL-SYKi (10X) were prepared from 10 mM DMSO stock solutions with room temperature Opti-MEM without phenol red, for final assay plate concentrations of 10 μM. Plates were incubated for 25 min at room temperature if digitonin was added or for 2 h at 37°C in 5% CO2 for the intact cell NanoBRET assay. Two technical replicates were plotted in a bar chart with the standard deviation represented as error bars on Graphpad Prism.
# [2] = system: GPCR scan and panel of 113 enzymes and receptors; conditions: at 10 μM; ref Sgc et al., 2024; cited from earlier work
# [3] = system: kinases of the KINOMEscan panel; conditions: ref Sgc et al., 2024; cited from earlier work
# [4] = system: SRC, NTRK1, NTRK3, FGR, FYN, FER, and JAK2; conditions: ref Sgc et al., 2024; cited from earlier work
# SYK(S550F) = target: T6, SYK(S550F) (Homo sapiens, UniProt P43405, S550F); assay: PhosphoSens SOX peptide kinase activity assay, SYK(S550F); assay type: biochemical; conditions: purified protein, 1 mM ATP
# T6 construct: The full-length SYK GoF variants SYK(S550F) and SYK(P342T) along with SYK(WT) were purified from insect cells (Sf9); 6His (N, cleaved yes); GST (N, cleaved yes); made in house; host or cells: Sf9 insect cells (baculovirus, pFastbac1)
# SYK(S550Y)-NL [5] = target: T7, SYK(S550Y)-NL (Homo sapiens, UniProt P43405, S550Y); assay: NanoBRET cellular target engagement assay in intact live HEK293 cells, SYK(S550Y)-NL; assay type: cell-based; conditions: for IC50: tracer titration
# T7 construct: host or cells: HEK293
# Experimental: (§2) NL orientations used in the respective assays are indicated. […] Plates were incubated for 25 min at room temperature if digitonin was added or for 2 h at 37°C in 5% CO2 for the intact cell NanoBRET assay. […] For intact live cells in a 96-well plate, the 3X stock solution was prepared with 30 μL of NanoBRET NanoGlo substrate, 10 μL of extracellular NanoLuc inhibitor, and 4,960 μL of Opti-MEM without phenol red. For digitonin permeabilized live cells in a 96-well plate, the 3X stock solution was prepared with 30 μL of NanoBRET NanoGlo substrate and 4,970 μL of Opti-MEM without phenol red. Raw milliBRET units (mBU) were read on a GloMax Discover system (Promega) with a donor emission wavelength of 450 nm and an acceptor emission wavelength of 600 nm. mBU were calculated by dividing the acceptor emission values (600 nm) by the donor emission values (450 nm). For NanoBRET studies with SYK, background corrected mBU were calculated by subtracting the no tracer wells from the tracer-containing wells and multiplying by 1,000.
# (§3) MRL-SYKi was used to compete away the NanoBRET signal produced with tracer 8. […] Tracer 8 was prepared in DMSO and DMEM without phenol red in 11-point dose-response format with 3 μM as the top concentration, with a final assay plate concentration of 1% DMSO. 10X stock solutions of MRL-SYKi were prepared from 10 mM DMSO stock solution with room temperature Opti-MEM without phenol red, for final assay plate concentrations of 10 μM. 10 μL of 8 (10X) was added to each well, with the exception of the no tracer control wells, and 10 μL of 10X solutions of MRL-SYKi was added to wells for tracer competition. One biological replicate was plotted in GraphPad Prism with [inhibitor] vs response (three parameters).
# (§4) MRL-SYKi was tested in 11-point dose–response format with a top concentration of 10 μM. […] The final assay plate concentrations included 1% DMSO. 5 μL of 8 (20X) was added to each well, except the no tracer control wells, and 10 μL of 10X threefold diluted solutions of MRL-SYKi was added to wells. Two biological replicates were plotted in GraphPad Prism with log[inhibitor] vs response (three parameters) with the error bars indicating standard deviation.
# (§5) Compounds were tested in 11-point dose–response format with a top concentration of 10 μM. Data are reported as IC50 ± standard error mean (SEM). One biological replicate was plotted in GraphPad Prism with log[inhibitor] vs response (three parameters), the three IC50’s were averaged and the SEM was calculated.
# SYK(S550F)-NL [6] = target: T8, SYK(S550F)-NL (Homo sapiens, UniProt P43405, S550F); assay: NanoBRET cellular target engagement assay in intact live HEK293 cells, SYK(S550F)-NL; assay type: cell-based
# T8 construct: host or cells: HEK293
# Experimental: as §2, §3, §4, §5
# SYK(P342T)-NL [7] = target: T3, SYK(P342T)-NL; assay: NanoBRET cellular target engagement assay in intact live HEK293 cells, SYK(P342T)-NL; assay type: cell-based
# Experimental: as §2, §3, §4, §5
# SYK(P342T) = target: T9, SYK(P342T) (Homo sapiens, UniProt P43405, P342T); assay: PhosphoSens SOX peptide kinase activity assay, SYK(P342T); assay type: biochemical; conditions: purified protein, 1 mM ATP
# T9 construct: The full-length SYK GoF variants SYK(S550F) and SYK(P342T) along with SYK(WT) were purified from insect cells (Sf9); 6His (N, cleaved yes); GST (N, cleaved yes); made in house; host or cells: Sf9 insect cells (baculovirus, pFastbac1)
# [8] = ref Altman et al., 2011; cited from earlier work
# SYK(S550Y)-NL [9] = target: T7, SYK(S550Y)-NL; assay: NanoBRET assay in digitonin permeabilized HEK293 cells, SYK(S550Y)-NL; assay type: cell-based; conditions: fixed concentration of tracer 8, average ± SEM, read-out: IC50, SYK(variant)-NL S550Y
# Experimental: as §1
# SYK(S550F)-NL [10] = target: T8, SYK(S550F)-NL; assay: NanoBRET assay in digitonin permeabilized HEK293 cells, SYK(S550F)-NL; assay type: cell-based; conditions: fixed concentration of tracer 8, average ± SEM, read-out: IC50, SYK(variant)-NL S550F
# Experimental: as §1
# [11] = system: pSYK(Y525/526) in SW480 cells stably expressing SYK(S550Y); assay: SYK phosphorylation western blot in SW480 cells stably expressing SYK(S550Y); assay type: cell-based
# Experimental: SW480 cells stably expressing S550Y variant were maintained as previously described ([Wang et al., 2021]). For SYK S550Y inhibition, cells were seeded in 12-well plate, at 10^6 cells/well. The next day, medium was replaced and MRL-SYK inhibitor was added at 10 μM and 100 nM for 20 h. Protein lysates were prepared and analyzed on Western blot as previously described ([Wang et al., 2021]).
smiles,measurement,setting,value
Cc1cc(Nc2nccc(C)n2)cc(-c2cnc([C@@]3(O)CC[C@H](C(=O)O)C(C)(C)C3)s2)c1 [MRL-SYKi],IC50,SYK(A353T)-NL,10 ± 5 nM
same,IC50,SYK(M450I)-NL,29 ± 6 nM
same,IC50,SYK(P342T)-NL [1],4.6 ± 2.6 nM
same,IC50,SYK,30 nM
same,IC50,SYK(WT)-NL,10 nM
same,off-target inhibition,[2],no off-target inhibition
same,selectivity versus the protein kinase family in the KINOMEscan panel,[3],greater than 30 fold
same,off-target kinases less potent than SYK,[4],≥ 111 fold
same,IC50,SYK(S550F),63 nM
same,Kd,"SYK(S550Y)-NL [5]; linearized Cheng-Prusoff analysis, y-intercept, tracer 8, single experiment, read-out: KD, app SYK(S550Y)",27 nM
same,IC50,"SYK(S550Y)-NL [5]; [Tracer] 7.8 nM, read-out: IC50, SYK(S550Y)-NL + 8 + MRL-SYKi",27 nM
same,IC50,"SYK(S550Y)-NL [5]; [Tracer] 15.6 nM, read-out: IC50, SYK(S550Y)-NL + 8 + MRL-SYKi",27 nM
same,IC50,"SYK(S550Y)-NL [5]; [Tracer] 31.2 nM, read-out: IC50, SYK(S550Y)-NL + 8 + MRL-SYKi",32 nM
same,IC50,"SYK(S550Y)-NL [5]; [Tracer] 62.5 nM, read-out: IC50, SYK(S550Y)-NL + 8 + MRL-SYKi",42 nM
same,IC50,"SYK(S550Y)-NL [5]; [Tracer] 125 nM, read-out: IC50, SYK(S550Y)-NL + 7 + MRL-SYKi",41 nM
same,IC50,"SYK(S550Y)-NL [5]; [Tracer] 125 nM, read-out: IC50, SYK(S550Y)-NL + 8 + MRL-SYKi",74 nM
same,IC50,"SYK(S550Y)-NL [5]; [Tracer] 250 nM, read-out: IC50, SYK(S550Y)-NL + 7 + MRL-SYKi",54 nM
same,IC50,"SYK(S550Y)-NL [5]; [Tracer] 500 nM, read-out: IC50, SYK(S550Y)-NL + 7 + MRL-SYKi",98 nM
same,IC50,"SYK(S550Y)-NL [5]; [Tracer] 1000 nM, read-out: IC50, SYK(S550Y)-NL + 7 + MRL-SYKi",220 nM
same,IC50,"SYK(S550F)-NL [6]; intact HEK293 cells, 125 nM tracer 8, average of triplicate ± SEM, read-out: SYK(S550F) IC50",250 ± 48 nM
same,Kd,"SYK(S550F)-NL [6]; linearized Cheng-Prusoff analysis, y-intercept, tracer 8, single experiment, read-out: KD, app SYK(S550F)",46 nM
same,IC50,"SYK(S550F)-NL [6]; tracer titration, [Tracer] 7.8 nM, read-out: IC50, SYK(S550F)-NL + 8 + MRL-SYKi",29 nM
same,IC50,"SYK(S550F)-NL [6]; tracer titration, [Tracer] 15.6 nM, read-out: IC50, SYK(S550F)-NL + 8 + MRL-SYKi",44 nM
same,IC50,"SYK(S550F)-NL [6]; tracer titration, [Tracer] 31.2 nM, read-out: IC50, SYK(S550F)-NL + 8 + MRL-SYKi",77 nM
same,IC50,"SYK(S550F)-NL [6]; tracer titration, [Tracer] 62.5 nM, read-out: IC50, SYK(S550F)-NL + 8 + MRL-SYKi",98 nM
same,IC50,"SYK(S550F)-NL [6]; tracer titration, [Tracer] 125 nM, read-out: IC50, SYK(S550F)-NL + 8 + MRL-SYKi",157 nM
same,IC50,"SYK(S550F)-NL [6]; tracer titration, [Tracer] 250 nM, read-out: IC50, SYK(S550F)-NL + 8 + MRL-SYKi",190 nM
same,IC50,"SYK(P342T)-NL [7]; intact HEK293 cells, 125 nM tracer 8, average of triplicate ± SEM, read-out: SYK(P342T) IC50",410 ± 95 nM
same,Kd,"SYK(P342T)-NL [7]; linearized Cheng-Prusoff analysis, y-intercept, tracer 8, single experiment, read-out: KD, app SYK(P342T)",179 nM
same,IC50,"SYK(P342T)-NL [7]; tracer titration, [Tracer] 15.6 nM, read-out: IC50, SYK(P342T)-NL + 8 + MRL-SYKi",134 nM
same,IC50,"SYK(P342T)-NL [7]; tracer titration, [Tracer] 31.2 nM, read-out: IC50, SYK(P342T)-NL + 8 + MRL-SYKi",194 nM
same,IC50,"SYK(P342T)-NL [7]; tracer titration, [Tracer] 62.5 nM, read-out: IC50, SYK(P342T)-NL + 8 + MRL-SYKi",371 nM
same,IC50,"SYK(P342T)-NL [7]; tracer titration, [Tracer] 125 nM, read-out: IC50, SYK(P342T)-NL + 8 + MRL-SYKi",365 nM
same,IC50,"SYK(P342T)-NL [7]; tracer titration, [Tracer] 250 nM, read-out: IC50, SYK(P342T)-NL + 8 + MRL-SYKi",498 nM
same,IC50,SYK(P342T),95 nM
same,cellular activity,[8],< 100 nM
same,IC50,SYK(S550Y)-NL [9],2.1 ± 1 nM
same,IC50,SYK(S550F)-NL [10],14 ± 5 nM
same,pSYK(Y525/526) levels via Western blot compared to untreated cells,[11]; 100 nM for 20 h,decrease in pSYK(Y525/526) levels; also recorded: decreased pSYK(Y525/526) levels
same,pSYK(Y525/526) levels via Western blot compared to untreated cells,[11]; 10 μM for 20 h,decrease in pSYK(Y525/526) levels

# From publication PMC13089524, “Development of SYK NanoBRET cellular target engagement assays for gain–of–function variants” (Frontiers in chemical biology, 2024)
